Measured values published in ChEMBL document CHEMBL1148993, “UV-mediated genotoxicity of furanoquinoline and of certain tryptophan-derived alkaloids” (J Nat Prod, 1983).
Where a name gives a salt, the structure may show the parent alone.

Assays:
CHO [1] = assay: Genotoxicity against CHO cells after UV irradiation; format: toxicity, cell-based, Cricetulus griseus; conditions: chinese hamster
CHO [2] = assay: Genotoxicity against CHO cells; format: toxicity, cell-based, Cricetulus griseus; conditions: chinese hamster
Bacillus subtilis [3] = assay: Phototoxicity against Bacillus subtilis at 100 ug/disk in dark; format: functional; conditions: light or radiation study, read-out: IZ
Candida albicans [4] = assay: Phototoxicity against Candida albicans at 100 ug/disk in dark; format: functional; conditions: light or radiation study, read-out: IZ
Enterococcus faecalis [5] = assay: Phototoxicity against Streptococcus faecalis at 100 ug/disk in dark; format: functional; conditions: light or radiation study, read-out: IZ
Candida albicans [6] = assay: Phototoxicity against Candida albicans at 100 ug/disk after irradiation with W/m'2 UV light; format: functional; conditions: light or radiation study, read-out: IZ
Bacillus subtilis [7] = assay: Phototoxicity against Bacillus subtilis at 100 ug/disk after irradiation with W/m'2 UV light; format: functional; conditions: light or radiation study, read-out: IZ
Enterococcus faecalis [8] = assay: Phototoxicity against Streptococcus faecalis at 100 ug/disk after irradiation with W/m'2 UV light; format: functional; conditions: light or radiation study, read-out: IZ
Saccharomyces cerevisiae [9] = assay: Phototoxicity against Saccharomyces cerevisiae at 100 ug/disk after irradiation with W/m'2 UV light; format: functional; conditions: light or radiation study, read-out: IZ
Pseudomonas aeruginosa [10] = assay: Phototoxicity against Pseudomonas aeruginosa at 100 ug/disk in dark; format: functional; conditions: light or radiation study, read-out: IZ
Pseudomonas aeruginosa [11] = assay: Phototoxicity against Pseudomonas aeruginosa at 100 ug/disk after irradiation with W/m'2 UV light; format: functional; conditions: light or radiation study, read-out: IZ
Staphylococcus aureus [12] = assay: Phototoxicity against Staphylococcus aureus at 100 ug/disk in dark; format: functional; conditions: light or radiation study, read-out: IZ
Staphylococcus aureus [13] = assay: Phototoxicity against Staphylococcus aureus at 100 ug/disk after irradiation with W/m'2 UV light; format: functional; conditions: light or radiation study, read-out: IZ
Escherichia coli [14] = assay: Phototoxicity against Escherichia coli at 100 ug/disk in dark; format: functional; conditions: light or radiation study, read-out: IZ
Pseudomonas fluorescens [15] = assay: Phototoxicity against Pseudomonas fluorescens at 100 ug/disk in dark; format: functional; conditions: light or radiation study, read-out: IZ
Saccharomyces cerevisiae [16] = assay: Phototoxicity against Saccharomyces cerevisiae at 100 ug/disk in dark; format: functional; conditions: light or radiation study, read-out: IZ
Escherichia coli [17] = assay: Phototoxicity against Escherichia coli at 100 ug/disk after irradiation with W/m'2 UV light; format: functional; conditions: light or radiation study, read-out: IZ
Pseudomonas fluorescens [18] = assay: Phototoxicity against Pseudomonas fluorescens at 100 ug/disk after irradiation with W/m'2 UV light; format: functional; conditions: light or radiation study, read-out: IZ
Staphylococcus aureus [19] = assay: Phototoxicity against Staphylococcus aureus at 10 ug/disk after irradiation with W/m'2 UV light; format: functional; conditions: light or radiation study, read-out: IZ
Enterococcus faecalis [20] = assay: Phototoxicity against Streptococcus faecalis at 10 ug/disk in dark; format: functional; conditions: light or radiation study, read-out: IZ
CHO [21] = assay: Genotoxicity in CHO cells assessed as chromosomal aberrations at 0.04 ppm after 60 mins in dark followed by 5 W/m'2 UV irradiation for 30 mins; format: toxicity, cell-based, Cricetulus griseus; conditions: chinese hamster, 0.5 h
Pseudomonas aeruginosa [22] = assay: Phototoxicity against Pseudomonas aeruginosa at 10 ug/disk in dark; format: functional; conditions: light or radiation study, read-out: IZ
Staphylococcus aureus [23] = assay: Phototoxicity against Staphylococcus aureus at 10 ug/disk in dark; format: functional; conditions: light or radiation study, read-out: IZ
CHO [24] = assay: Genotoxicity in CHO cells assessed as chromosomal aberrations at 0.02 ppm after 60 mins in dark followed by 5 W/m'2 UV irradiation for 30 mins; format: toxicity, cell-based, Cricetulus griseus; conditions: chinese hamster, 0.5 h
Bacillus subtilis [25] = assay: Phototoxicity against Bacillus subtilis at 10 ug/disk in dark; format: functional; conditions: light or radiation study, read-out: IZ
Pseudomonas aeruginosa [26] = assay: Phototoxicity against Pseudomonas aeruginosa at 10 ug/disk after irradiation with W/m'2 UV light; format: functional; conditions: light or radiation study, read-out: IZ
CHO [27] = assay: Genotoxicity in CHO cells assessed as chromosomal aberrations at 0.3 ppm after 90 mins in dark; format: toxicity, cell-based, Cricetulus griseus; conditions: chinese hamster, 1.5 h
CHO [28] = assay: Genotoxicity in CHO cells assessed as chromosomal aberrations at 0.1 ppm after 60 mins in dark followed by 5 W/m'2 UV irradiation for 30 mins; format: toxicity, cell-based, Cricetulus griseus; conditions: chinese hamster, 0.5 h
Candida albicans [29] = assay: Phototoxicity against Candida albicans at 10 ug/disk in dark; format: functional; conditions: light or radiation study, read-out: IZ
CHO [30] = assay: Genotoxicity in CHO cells assessed as mitotic inhibition at 0.2 ppm after 60 mins in dark followed by 5 W/m'2 UV irradiation for 30 mins; format: toxicity, cell-based, Cricetulus griseus; conditions: chinese hamster, 0.5 h
Escherichia coli [31] = assay: Phototoxicity against Escherichia coli at 10 ug/disk after irradiation with W/m'2 UV light; format: functional; conditions: light or radiation study, read-out: IZ
Bacillus subtilis [32] = assay: Phototoxicity against Bacillus subtilis at 10 ug/disk after irradiation with W/m'2 UV light; format: functional; conditions: light or radiation study, read-out: IZ
Candida albicans [33] = assay: Phototoxicity against Candida albicans at 10 ug/disk after irradiation with W/m'2 UV light; format: functional; conditions: light or radiation study, read-out: IZ
Enterococcus faecalis [34] = assay: Phototoxicity against Streptococcus faecalis at 10 ug/disk after irradiation with W/m'2 UV light; format: functional; conditions: light or radiation study, read-out: IZ
Saccharomyces cerevisiae [35] = assay: Phototoxicity against Saccharomyces cerevisiae at 10 ug/disk after irradiation with W/m'2 UV light; format: functional; conditions: light or radiation study, read-out: IZ
Escherichia coli [36] = assay: Phototoxicity against Escherichia coli at 10 ug/disk in dark; format: functional; conditions: light or radiation study, read-out: IZ
Pseudomonas fluorescens [37] = assay: Phototoxicity against Pseudomonas fluorescens at 10 ug/disk after irradiation with W/m'2 UV light; format: functional; conditions: light or radiation study, read-out: IZ
Saccharomyces cerevisiae [38] = assay: Phototoxicity against Saccharomyces cerevisiae at 10 ug/disk in dark; format: functional; conditions: light or radiation study, read-out: IZ
Pseudomonas fluorescens [39] = assay: Phototoxicity against Pseudomonas fluorescens at 10 ug/disk in dark; format: functional; conditions: light or radiation study, read-out: IZ
CHO [40] = assay: Genotoxicity in CHO cells assessed as chromosomal aberrations at 50 ppm after 90 mins in dark; format: toxicity, cell-based, Cricetulus griseus; conditions: chinese hamster, 1.5 h
CHO [41] = assay: Genotoxicity in CHO cells assessed as chromosomal aberrations at 25 ppm after 60 mins in dark followed by 5 W/m'2 UV irradiation for 30 mins; format: toxicity, cell-based, Cricetulus griseus; conditions: chinese hamster
CHO [42] = assay: Genotoxicity in CHO cells assessed as chromosomal aberrations at 6.2 ppm after 60 mins in dark followed by 5 W/m'2 UV irradiation for 30 mins; format: toxicity, cell-based, Cricetulus griseus; conditions: chinese hamster, 0.5 h
CHO [43] = assay: Genotoxicity in CHO cells assessed as chromosomal aberrations at 3.1 ppm after 60 mins in dark followed by 5 W/m'2 UV irradiation for 30 mins; format: toxicity, cell-based, Cricetulus griseus; conditions: chinese hamster, 0.5 h
CHO [44] = assay: Genotoxicity in CHO cells assessed as chromosomal aberrations at 0.4 ppm after 60 mins in dark followed by 5 W/m'2 UV irradiation for 30 mins; format: toxicity, cell-based, Cricetulus griseus; conditions: chinese hamster, 0.5 h
CHO [45] = assay: Genotoxicity in CHO cells assessed as chromosomal aberrations at 50 ppm after 60 mins in dark followed by 5 W/m'2 UV irradiation for 30 mins; format: toxicity, cell-based, Cricetulus griseus; conditions: chinese hamster
CHO [46] = assay: Genotoxicity in CHO cells assessed as chromosomal aberrations at 12.5 ppm after 60 mins in dark followed by 5 W/m'2 UV irradiation for 30 mins; format: toxicity, cell-based, Cricetulus griseus; conditions: chinese hamster, 0.5 h
CHO [47] = assay: Genotoxicity in CHO cells assessed as chromosomal aberrations at 0.8 ppm after 60 mins in dark followed by 5 W/m'2 UV irradiation for 30 mins; format: toxicity, cell-based, Cricetulus griseus; conditions: chinese hamster, 0.5 h

## CN1[C@@H]2CC[C@H]1C[C@@H](OC(=O)C(CO)c1ccccc1)C2 (some centres not stated) [ATROPINE]
CHO [1]
  Activity: Not Active
CHO [2]
  Activity: Not Active

## O=C1C[C@@H]2OCC=C3CN4CC[C@]56c7ccccc7N1[C@H]5[C@H]2[C@H]3C[C@H]46 [STRYCHNINE SULFATE]
Bacillus subtilis [3]
  zone of inhibition at 100 µg/disc: 0 mm
Candida albicans [4]
  zone of inhibition at 100 µg/disc: 0 mm
Enterococcus faecalis [5]
  zone of inhibition at 100 µg/disc: 0 mm
Candida albicans [6]
  zone of inhibition at 100 µg/disc: 0 mm
Bacillus subtilis [7]
  zone of inhibition at 100 µg/disc: 0 mm
Enterococcus faecalis [8]
  zone of inhibition at 100 µg/disc: 0 mm
Saccharomyces cerevisiae [9]
  zone of inhibition at 100 µg/disc: 0 mm
Pseudomonas aeruginosa [10]
  zone of inhibition at 100 µg/disc: 0 mm
Pseudomonas aeruginosa [11]
  zone of inhibition at 100 µg/disc: 0 mm
Staphylococcus aureus [12]
  zone of inhibition at 100 µg/disc: 0 mm
Staphylococcus aureus [13]
  zone of inhibition at 100 µg/disc: 0 mm
Escherichia coli [14]
  zone of inhibition at 100 µg/disc: 0 mm
Pseudomonas fluorescens [15]
  zone of inhibition at 100 µg/disc: 0 mm
Saccharomyces cerevisiae [16]
  zone of inhibition at 100 µg/disc: 0 mm
Escherichia coli [17]
  zone of inhibition at 100 µg/disc: 0 mm
Pseudomonas fluorescens [18]
  zone of inhibition at 100 µg/disc: 0 mm

## COc1c2occc2cc2ccc(=O)oc12 [METHOXSALEN]
Staphylococcus aureus [19]
  zone of inhibition at 10 µg/disc: 18 mm
Enterococcus faecalis [20]
  zone of inhibition at 10 µg/disc: 0 mm
CHO [21]
  Activity: 38.8%
Pseudomonas aeruginosa [22]
  zone of inhibition at 10 µg/disc: 0 mm
Staphylococcus aureus [23]
  zone of inhibition at 10 µg/disc: 0 mm
CHO [24]
  Activity: 7.1%
Bacillus subtilis [25]
  zone of inhibition at 10 µg/disc: 0 mm
Pseudomonas aeruginosa [26]
  zone of inhibition at 10 µg/disc: 0 mm
CHO [27]
  Activity: 0%
CHO [28]
  Activity: 63.6%
Candida albicans [29]
  zone of inhibition at 10 µg/disc: 0 mm
CHO [30]
  Activity: Active
Escherichia coli [31]
  zone of inhibition at 10 µg/disc: 14 mm
Bacillus subtilis [32]
  zone of inhibition at 10 µg/disc: 14 mm
Candida albicans [33]
  zone of inhibition at 10 µg/disc: 14 mm
Enterococcus faecalis [34]
  zone of inhibition at 10 µg/disc: 14 mm
Saccharomyces cerevisiae [35]
  zone of inhibition at 10 µg/disc: 19 mm
Escherichia coli [36]
  zone of inhibition at 10 µg/disc: 0 mm
Pseudomonas fluorescens [37]
  zone of inhibition at 10 µg/disc: 0 mm
Saccharomyces cerevisiae [38]
  zone of inhibition at 10 µg/disc: 0 mm
Pseudomonas fluorescens [39]
  zone of inhibition at 10 µg/disc: 0 mm

## CC[C@]1(O)C[C@@H]2CN(CCc3c([nH]c4ccccc34)[C@@](C(=O)OC)(c3cc4c(cc3OC)N(C)[C@H]3[C@@](O)(C(=O)OC)[C@H](OC(C)=O)[C@]5(CC)C=CCN6CC[C@]43[C@@H]65)C2)C1 [VINBLASTINE]
CHO [1]
  Activity: Not Active
CHO [2]
  Activity: Not Active

## COc1ccc2c(OC)c3ccoc3nc2c1OC [SKIMMIANINE]
CHO [40]
  Activity: 0%
CHO [41]
  Activity: 50%
CHO [42]
  Activity: 59.9%
CHO [43]
  Activity: 45%
CHO [44]
  Activity: 3%
CHO [45]
  Activity: Toxic
CHO [46]
  Activity: 61.9%
CHO [47]
  Activity: 10.9%

## CN1[C@@H]2CC[C@H]1C[C@@H](OC(=O)C(CO)c1ccccc1)C2 (some centres not stated) [ATROPINE SULFATE]
Candida albicans [4]
  zone of inhibition at 100 µg/disc: 0 mm
Enterococcus faecalis [5]
  zone of inhibition at 100 µg/disc: 0 mm
Candida albicans [6]
  zone of inhibition at 100 µg/disc: 0 mm
Bacillus subtilis [7]
  zone of inhibition at 100 µg/disc: 0 mm
Enterococcus faecalis [8]
  zone of inhibition at 100 µg/disc: 0 mm
Saccharomyces cerevisiae [9]
  zone of inhibition at 100 µg/disc: 0 mm
Pseudomonas aeruginosa [10]
  zone of inhibition at 100 µg/disc: 0 mm
Pseudomonas aeruginosa [11]
  zone of inhibition at 100 µg/disc: 0 mm
Staphylococcus aureus [12]
  zone of inhibition at 100 µg/disc: 0 mm
Staphylococcus aureus [13]
  zone of inhibition at 100 µg/disc: 0 mm
Pseudomonas fluorescens [15]
  zone of inhibition at 100 µg/disc: 0 mm
Saccharomyces cerevisiae [16]
  zone of inhibition at 100 µg/disc: 0 mm
Pseudomonas fluorescens [18]
  zone of inhibition at 100 µg/disc: 0 mm
